Measurements taken from USRE38551E1, “Anticonvulsant enantiomeric amino acid derivatives” (priority 1996, dated 2004).

Assays:
Format in all cases: in vivo
[1] = tested on: maximal electroshock (MES) induced seizure; test: maximal electroshock (MES) seizure test, rats (po); settings: for ED50: Rattus norvegicus
Text: (§1) Compounds were screened for anticonvulsant activity in both male albino Carthworth Farms No. 1 mice (ip route) and male albino Sprague Dawley rats [oral (po) route]. Activity was established using the electrical (maximal electroshock or MES) test. In the MES test, a drop of electrolyte solution with anesthetic (0.5% butacaine hemisulfate in 0.9% sodium chloride) was used in the eyes of the animals prior to positioning the corneal electrodes and delivery of current. […] Protection endpoints were defined as the abolition of the hind limb tonic extensor component of the induced seizure. In mice, effects of compounds on forced spontaneous motor activity were determined using the rotorod test. […] Normally under these conditions, mice maintain their balance almost indefinitely. In rats, motor impairment is assessed by observing for overt evidence of ataxia, abnormal gait and stance, and/or loss of placing response and muscle tone. In the mouse identification screening study all compounds were given at three dose levels (30, 100, 300 mg/kg) and two time periods (0.5 hours, 4 hours). Typically, in the MES seizures test one animal was tested at 30 mg/kg and 300 mg/kg, and three animals at 100 mg/kg. In the rotored toxicity test four animals were tested at 30 mg/kg, and 300 mg/kg, and eight animals at 100 mg/kg.
(§2) The quantitative determination of the median effective (ED50) and toxic doses (TD50) was conducted at previously calculated times of peak effect. Groups of at least eight animals were tested using different doses of test compound until at least two points wee determined between 100 and 0% protection and minimal motor impairment.

[2] = rotorod neurologic toxicity test, mice (ip); settings: male, Carthworth Farms No. 1, in vivo, ip; mouse, i.p., rotorod test at peak effect (Table 6); read-out: MOUSE ED50 Neurotox
Text: as §1
as §2, with “impairment. The dose of candidate substance required to produce the defined end-point in 50% of the animals in each test and the 95% confidence interval was calculated.” for “impairment.”

[3] = tested on: motor impairment (rotorod test); test: rotorod neurologic toxicity test, mice (ip); settings: mice, ip, rotorod test, at time of peak effect
Text: as §1
as §2, with “impairment. The dose of candidate substance required to produce the defined end-point in 50% of the animals in each test and the 95% confidence interval was calculated.” for “impairment.”

[4] = tested on: maximal electroshock (MES) induced seizure; test: maximal electroshock (MES) seizure test, mice (ip); settings: for ED50: Mus musculus
Text: as §1, §2

SMILES | ED50 ([1]; po, read-out: MES, ED50) [mg/kg] | ED50 ([1]; po, read-out: RAT anticonvulsant ED50 MES) [mg/kg] | Ratio to MES ([1]; rat, oral, Neurotox/MES (Table 6)) | PI protective index (TD50/MES ED50) ([1]; rat, po) | ED50 [2] [mg/kg] | tox, TD50 [3] | ED50 ([4]; ip, read-out: MES, ED50) [mg/kg] | ED50 ([4]; ip, read-out: MOUSE anticonvulsant dose ED50 MES) [mg/kg] | PI protective index (TD50/MES ED50) ([4]; mice, ip) | Ratio to MES ([4]; mouse, i.p., Neurotox/MES (Table 6)) | RAT anticonvulsant ED50 MES ([1]; rat, oral (Table 6)) [mg/kg] | MES, ED50 ([1]; rat, po, at time of peak effect) | MES, ED50 ([4]; mice, ip, at time of peak effect (hours in brackets)) | MOUSE anticonvulsant dose ED50 MES ([4]; mouse, i.p. (Table 6)) [mg/kg]
CC(=O)NC(C)C(=O)NCc1ccccc1 (racemic) [compound 1, N-Acetyl-D,L-alanine-N′-benzylamide] | 24.2 | 48.2 | 20.8 | >20.8 | 454 | 454 [0.5] mg/kg | 76.5 | 76.5 | 5.9 | 5.9 | – | – | – | –
COC[C@@H](NC(C)=O)C(=O)NCc1ccccc1 [Ex. 1, 2, (R)-N-Benzyl-2-Acetamide-3-methoxypropionamide] | – | – | – | – | – | – | – | – | – | – | 3.90 | 3.9 [0.5] mg/kg | 4.5 [0.5] mg/kg | 4.46
